Reference: ChEMBL document CHEMBL1649168, “Susceptibility of human immunodeficiency virus type 1 to the maturation inhibitor bevirimat is modulated by baseline polymorphisms in Gag spacer peptide 1” (Antimicrob Agents Chemother, 2009)

What was measured:
[1] = tested on: Human immunodeficiency virus 1; test: Antiviral activity against HIV1 NL4.3 harboring SP1 Q6A mutant gene relative to wild type; type: functional
[2] = tested on: Human immunodeficiency virus 1; test: Antiviral activity against HIV1 NL4.3 harboring SP1 V7M mutant gene relative to wild type; type: functional
[3] = tested on: Human immunodeficiency virus 1; test: Antiviral activity against HIV1 HXB2 harboring SP1 Q6H /V7A/T8delta mutant gene relative to wild type; type: functional
[4] = tested on: Human immunodeficiency virus 1; test: Antiviral activity against HIV1 PA104 harboring SP1 mutant gene relative to wild type; type: functional
[5] = tested on: Human immunodeficiency virus 1; test: Antiviral activity against HIV1 HXB2 harboring SP1 V7A mutant gene relative to wild type; type: functional
[6] = tested on: Human immunodeficiency virus 1; test: Antiviral activity against HIV1 HXB2 harboring SP1 mutant gene relative to wild type; type: functional
[7] = tested on: Human immunodeficiency virus 1; test: Antiviral activity against HIV1 PA107 harboring SP1 mutant gene relative to wild type; type: functional
[8] = tested on: Human immunodeficiency virus 1; test: Antiviral activity against HIV1 HXB2 harboring SP1 Q6H/T8N mutant gene relative to wild type; type: functional
[9] = tested on: Human immunodeficiency virus 1; test: Antiviral activity against HIV1 PA103 harboring SP1 mutant gene relative to wild type; type: functional
[10] = tested on: Human immunodeficiency virus 1; test: Antiviral activity against HIV1 PA118 harboring SP1 mutant gene relative to wild type; type: functional
[11] = tested on: Human immunodeficiency virus 1; test: Antiviral activity against HIV1 PA101 harboring SP1 mutant gene relative to wild type; type: functional
[12] = tested on: Human immunodeficiency virus 1; test: Antiviral activity against HIV1 PA109 harboring SP1 mutant gene relative to wild type; type: functional
[13] = tested on: Human immunodeficiency virus 1; test: Antiviral activity against HIV1 PA115 harboring SP1 mutant gene relative to wild type; type: functional
[14] = tested on: Human immunodeficiency virus 1; test: Antiviral activity against HIV1 PA108 harboring SP1 mutant gene relative to wild type; type: functional
[15] = tested on: Human immunodeficiency virus 1; test: Antiviral activity against HIV1 PA117 harboring SP1 mutant gene relative to wild type; type: functional
[16] = tested on: Human immunodeficiency virus 1; test: Antiviral activity against HIV1 NL4.3 harboring SP1 V7A mutant gene relative to wild type; type: functional
[17] = tested on: Human immunodeficiency virus 1; test: Antiviral activity against HIV1 HXB2 harboring SP1 V7M mutant gene relative to wild type; type: functional
[18] = tested on: Human immunodeficiency virus 1; test: Antiviral activity against HIV1 PA114 harboring SP1 mutant gene relative to wild type; type: functional
[19] = tested on: Human immunodeficiency virus 1; test: Antiviral activity against HIV1 PA116 harboring SP1 mutant gene relative to wild type; type: functional
[20] = tested on: Human immunodeficiency virus 1; test: Antiviral activity against HIV1 PA105 harboring SP1 mutant gene relative to wild type; type: functional
[21] = tested on: Human immunodeficiency virus 1; test: Antiviral activity against HIV1 PA100 harboring SP1 mutant gene relative to wild type; type: functional
[22] = tested on: Human immunodeficiency virus 1; test: Antiviral activity against HIV1 PA111 harboring SP1 mutant gene relative to wild type; type: functional
[23] = tested on: Human immunodeficiency virus 1; test: Antiviral activity against HIV1 HXB2 harboring SP1 T8delta mutant gene relative to wild type; type: functional
[24] = tested on: Human immunodeficiency virus 1; test: Antiviral activity against HIV1 HXB2 harboring SP1 Q6H/T8delta mutant gene relative to wild type; type: functional
[25] = tested on: Human immunodeficiency virus 1; test: Antiviral activity against HIV1 HXB2 harboring SP1 Q6H mutant gene relative to wild type; type: functional
[26] = tested on: Human immunodeficiency virus 1; test: Antiviral activity against HIV1 NL4.3 harboring SP1 mutant gene relative to wild type; type: functional
[27] = tested on: Human immunodeficiency virus 1; test: Antiviral activity against HIV1 HXB2 harboring SP1 Q6H /V7A/T8N mutant gene relative to wild type; type: functional
[28] = tested on: Human immunodeficiency virus 1; test: Antiviral activity against HIV1 PA102 harboring SP1 mutant gene relative to wild type; type: functional
[29] = tested on: Human immunodeficiency virus 1; test: Antiviral activity against HIV1 PA110 harboring SP1 mutant gene relative to wild type; type: functional
[30] = tested on: Human immunodeficiency virus 1; test: Antiviral activity against HIV1 PA119 harboring SP1 mutant gene relative to wild type; type: functional
[31] = tested on: Human immunodeficiency virus 1; test: Antiviral activity against HIV1 NL4.3 harboring SP1 V7delta mutant gene relative to wild type; type: functional
[32] = tested on: Human immunodeficiency virus 1; test: Antiviral activity against HIV1 PA112 harboring SP1 mutant gene relative to wild type; type: functional
[33] = tested on: Human immunodeficiency virus 1; test: Antiviral activity against HIV1 clinical isolates; type: functional, organism-based
[34] = tested on: Human immunodeficiency virus 1; test: Antiviral activity against HIV1 HXB2 harboring SP1 T8N mutant gene relative to wild type; type: functional
[35] = tested on: Human immunodeficiency virus 1; test: Antiviral activity against HIV1 HXB2 harboring SP1 V7A/T8N mutant gene relative to wild type; type: functional
[36] = tested on: Human immunodeficiency virus 1; test: Antiviral activity against HIV1 PA106 harboring SP1 mutant gene relative to wild type; type: functional
[37] = tested on: Human immunodeficiency virus 1; test: Antiviral activity against HIV1 HXB2 harboring SP1 Q6H/V7A mutant gene relative to wild type; type: functional
[38] = tested on: Human immunodeficiency virus 1; test: Antiviral activity against HIV1 PA113 harboring SP1 mutant gene relative to wild type; type: functional
[39] = tested on: Human immunodeficiency virus 1; test: Antiviral activity against HIV1 NL4.3 harboring SP1 L231M mutant gene relative to wild type; type: functional
[40] = tested on: Human immunodeficiency virus 1; test: Antiviral activity against HIV1 HXB2 harboring SP1 V7A/T8delta mutant gene relative to wild type; type: functional
[41] = tested on: Human immunodeficiency virus 1; test: Antiviral activity against HIV1 NL4.3 harboring SP1 T8delta mutant gene relative to wild type; type: functional
[42] = tested on: Human immunodeficiency virus 1; test: Antiviral activity against HIV1 NL4.3 harboring SP1 T8A mutant gene relative to wild type; type: functional
[43] = tested on: Human immunodeficiency virus 1; test: Antiviral activity against HIV1 NL4.3 harboring SP1 Q6H mutant gene relative to wild type; type: functional
[44] = tested on: Human immunodeficiency virus 1; test: Antiviral activity against HIV1 NL4.3 harboring SP1 A1V mutant gene relative to wild type; type: functional

## C=C(C)[C@@H]1CC[C@]2(C(=O)O)CC[C@]3(C)[C@H](CC[C@@H]4[C@@]5(C)CC[C@H](OC(=O)CC(C)(C)C(=O)O)C(C)(C)[C@@H]5CC[C@]43C)[C@@H]12 [BEVIRIMAT]
[1]
  fold change (FC): 0.9
[2]
  fold change (FC): 25.3
[3]
  fold change (FC): >144.3
[4]
  fold change (FC): 9.3
[5]
  fold change (FC): >151.4
[6]
  fold change (FC): 1.7
[7]
  fold change (FC): 9.8
[8]
  fold change (FC): >122.5
[9]
  fold change (FC): >83.2
[10]
  fold change (FC): >113.7
[11]
  fold change (FC): >76.1
[12]
  fold change (FC): >125.4
[13]
  fold change (FC): 0.9
[14]
  fold change (FC): >116.6
[15]
  fold change (FC): 1.9
[16]
  fold change (FC): 45.8
[17]
  fold change (FC): >113
[18]
  fold change (FC): >106.1
[19]
  fold change (FC): 4.5
[20]
  fold change (FC): >125.4
[21]
  fold change (FC): >125.4
[22]
  fold change (FC): >119.5
[23]
  fold change (FC): 52.2
[24]
  fold change (FC): >111
[25]
  fold change (FC): 2.3
[26]
  fold change (FC): 1.1
[27]
  fold change (FC): >132.3
[28]
  fold change (FC): 5.6
[29]
  fold change (FC): 1.5
[30]
  fold change (FC): >106.4
[31]
  fold change (FC): 65.5
[32]
  fold change (FC): 1.9
[33]
  IC50: 10 nM
[34]
  fold change (FC): 52
[35]
  fold change (FC): >157.2
[36]
  fold change (FC): >119.5
[37]
  fold change (FC): >115.1
[38]
  fold change (FC): 2.3
[39]
  fold change (FC): 37.6
[40]
  fold change (FC): >130.6
[41]
  fold change (FC): 10.9
[42]
  fold change (FC): 1.2
[43]
  fold change (FC): 1.9
[44]
  fold change (FC): >77.5
